The results in this text go back to patent publication US6452037B1, “Multioligonanilinated fullerenes” (priority 2001, dated 2002).

A short description of data set [1]: Water solubility noted for the isolated product. The format is physicochemical. As to the method: 200 mg F12A16 and 15.0 mL DMF were added to a dry flask containing a stirring bar and a condenser under N2. To the DMF solution were either sequentially added 1.0 mL DBU, 0.5 mL 1,4-butane sultone, and stirred at 100° C. for 12.0 hours or sequentially added 70 mg sodium hydride −30° C., stirred for 30 minutes, added 0.5 mL 1,4-butane sultone, and stirred at 60° C. for 6.0 hours. It was then quenched with 100 mL dilute HCl-acetone solution to effect precipitation of a solid. The solid was collected after centrifugation, washed twice with acetonitrile, and dissolved in 15 mL DMSO-H2O (1:5) in the presence of 100 mg Na2CO3. The DMSO-H2O solution was slowly added to acetone, resulting in precipitation of the product F12A16S. The product, in blue, was collected after centrifugation, washed with DMF and acetone, and then dried under vacuum at 40° C. to yield 210-230 mg water-soluble F12A16S.
80 mg F10A4 in 20 mL DMSO, and 60 mg sodium hydride were added into a dry flask equipped with a stirring bar and a condenser at ambient temperature under N2. The solution thus obtained was stirred for 30 minutes, followed by addition of 0.2 mL 1,4-butane sultone. The reaction mixture was slowly heated to 70° C. and stirred for 12.0 hours, and was quenched with 100 mL dilute HCl-acetonitrile solution to effect precipitation. […]

In data set [2] the test system is Fibrosarcoma cells (CCRC 60037) and sarcoma 180 cells. Briefly: In vitro irradiation-induced cytotoxicity, MTT cell viability, tumor cells (cell type not specified for the result). The format is cell-based. Here is the method: (§1) Two types of tumor cells were used in this study, and prepared as follows: Fibrosarcoma cells (CCRC 60037) and sarcoma 180 cells (obtained form Biochemical Institute of Chung Shan Medical and Dental College, Taiwan) were maintained and cultured in an α-modified eagle medium (MEM) containing L-glutamine and phenol red. It was supplemented with 10% fetal bovine serum and antibiotics (100 units/mL of penicillin G and 100 μg/mL streptomycin sulfate). The cells were incubated in the dark in 95% humidified air plus 5% CO2, and harvested by treatment with trypsin-EDTA. The harvested cells were suspended in an α-MEM medium at the concentration of 1×10^4 cells per mL.
The cell suspension thus obtained was placed into wells of a 24-well plate (500 μL each) and pre-incubated at 37° C. for 24 hours. F10A16S solutions at various concentrations (0-10 μM) were then added to the wells (500 μL each). The wells were irradiated with fluorescence light (27 watts) for 0-60 minutes. The distance between the plate cover and the light source was set at 5-6 cm. After irradiation, the cells were further incubated for 48 hours. A solution of 3-(4,5-dimethylthiazol-2-yl)-2,5-diphenyl-tetrazolium bromide (MTT, 100 μL, 0.5% in PBS, 100 μL each) was then added to each of the wells to react with mitochrondrial dehydrogenase in the living cells to produce formazon. Each cell suspension was again incubated at 37° C. for 3 hours. The suspension medium was then discarded. Formazon formed in cells from each well was then extracted with DMSO (1.0 mL each). The DMSO extract solution was immediately used for optical measurement. The absorbance at 540 nm was correlated with the quantity of formazon, and thus with the quantity of dehydrogenase enzyme or the relative number of living cells (i.e., viability). […] With an irradiation time of 60 minutes, a sharp loss of viable cells was observed when F10A16S concentration was increased from 2.5 to 5.0 μM. A maximal photodynamic cytotoxicity efficacy of >90% was obtained at an F10A16S concentration of 5.0-10.0 μM and an irradiaion time of 60 minutes.

Data set [3] concerns Fibrosarcoma cells (CCRC 60037). The data set is described as follows: In vitro irradiation-induced cytotoxicity, MTT cell viability, fibrosarcoma cells. The format is cell-based. The settings on record: fluorescence light irradiation time 60 minutes. Here is the method: as §1
The cell suspension thus obtained was placed into wells of a 24-well plate (500 μL each) and pre-incubated at 37° C. for 24 hours. F10A16S solutions at various concentrations (0-10 μM) were then added to the wells (500 μL each). The wells were irradiated with fluorescence light (27 watts) for 0-60 minutes. The distance between the plate cover and the light source was set at 5-6 cm. After irradiation, the cells were further incubated for 48 hours. […] The absorbance at 540 nm was correlated with the quantity of formazon, and thus with the quantity of dehydrogenase enzyme or the relative number of living cells (i.e., viability). […]

Data set [4] relates to Murine sarcoma 180 cells subcutaneous tumors. Briefly: In vivo photodynamic therapy study in tumor-bearing mice. Further details: species or system male ICR mice. The settings on record: 10 mg/kg intraperitoneal, 100 J/cm^2, day 30. Here is the method:
A photodynamic therapy study was conducted in male ICR mice (Charles River Japan origin Crl: CD-1® (ICR)BR). The mice were 8 weeks old, weighted 37±0.8 g, housed in polycarbonated shoe-box cages on hardwood bedding (5 mice/cage) under controlled conditions (temperature 22±1° C., relative humidity 55±15%, and light/dark cycle 12/12 hours), and allowed free access to a laboratory rodent diet (#5K55, Purina Mills, Inc., St. Louis, Mo.) and water.
Murine sarcoma 180 cells were maintained by transplantation to other mice in the abdominal cavity biweekly. Subcutaneous tumors were induced by […] injection of 1×10^7 tumor cells (about 0.1-0.15 ml ascitic fluid) to the subcutaneous region of abdominal cavities of the mice for this study, and were allowed to proliferate at the inoculation sites for 5-7 days until they reached a size with a diameter of 10±2 mm. […]
After the treatment, the mouse was examined every 5 days for 30 days. Efficacy of the irradiation therapy was evaluated by measuring the body weights and tumor volumes of the mouse. At day 30, the mice were euthanatized by carbon dioxide asphyxiation, and the weights of the body, liver, kidney, spleen, heart, and tumor, were measured. […]

In the next data set the test system is ferricytochrome C. Briefly: In vitro irradiation-induced superoxide generation (ferricytochrome C reduction, absorbance at 550 nm). The settings on record: 25 μM F10A4S, fluorescence light 27 watts, irradiation time 0, 30, 60, 90 minutes. Here is the method: The solution thus obtained was added to each well of a 24-well plate, and exposed to fluorescence light source (27 watts) for 0-90 min. The distance between the plate cover and the light source was set at 5-6 cm. The extent of reduction of ferricytochrome C to ferrocytochrome C was evaluated by optical measurement. The increase of the absorbance at 550 nm corresponded to the increase of the quantity of ferrocytochrome C.
In a separate experiment, the presence of superoxide radicals in the solution was confirmed by selective removal of superoxide radicals with superoxide dismutase (SOD, 75 or 150 units).

pIC50: −log10 of the molar value. Where only a bound is given, the exact number is not on record here.

For “sulfobutylated fullerene dodeca(hexadecaanilino)adduct [F12A16S]”, the solubility in water result in data set [1] is recorded as “water-soluble”.

Consider deca(hexadecaanilino)adduct [F10A16S], for which the “cell viability with irradiation” value in data set [2] (0-10 μM, irradiation 0-60 minutes) was “decrease in cell viability in both dose-dependent and irradiation time-dependent manners”. The “maximal photodynamic cytotoxicity efficacy” value in data set [2] (5.0-10.0 μM, irradiation time 60 minutes) is given as above 90%. The “cytotoxicity in the absence of light irradiation” value in data set [2] (no irradiation, highest concentration 10 μM) was “no cystoxicity was observed”. In data set [3], the pIC50 is 5.54. Also, the results for the “tumor weight less than that of the tumor control group” value in data set [4] (laser irradiation at 514 nm) and in data set [4] (laser irradiation at 633 nm) were “roughly 60%” and around 99%, respectively.

Turning to “sulfobutylated deca(tetraanilino)-pentakis(methano)-[60]fullerene decacarbamide [F10A4S]”, the “production of superoxide radicals upon irradiation” value in the data set on ferricytochrome C is “increase systematically in a time-dependent manner”. The solubility in water entry in data set [1] was “water-soluble”.
